Laboratory results published in patent US7348347B2, “Substituted 4,5,6,7-tetrahydrobenzthiazol-2-ylamine compounds” (Gruenenthal GmbH, priority 2004, dated 2008).
Where two headings read alike, the source gives them in different places.

Legend:
[1] = tested on: phenylquinone-induced writhing reactions in mice; assay: Analgesic test using the phenylquinone-induced writhing test on mice; assay type: in vivo, mouse; conditions: male NMRI mice, phenylquinone i.p.
Procedure: I. Analgesic Test Using the Writhing Test on Mice
The analysis of analgesic activity is carried out using the phenylquinone-induced writhing assay in mice, modified as described in the article by I. C. Hendershot and J. Forsaith ((1959) in J. Pharmacol. Exp. Ther. 125, 237-240. The relevant description is incorporated herein by reference and is to be regarded as part of the present disclosure.
For the present purpose, male NMRI mice are used having a weight of from 25 to 30 g. Groups of 10 animals per substance dose receive, 10 minutes after an intravenous dose of test substances, an intraperitoneal administration of 0.3 ml/mouse of a 0.02% strength aqueous solution of phenylquinone (phenylbenzoquinone, obtainable from Sigma, Deisenhofen; solution produced with the addition of 5% of ethanol and storage in a water bath at 45° C.). The animals are placed individually in observation cages. Using a pushbutton counter, the number of pain-induced stretching movements (so-called writhing reactions=straightening of the body accompanied by stretching of the rear extremities) was counted over a period of from 5 to 20 minutes following the administration of phenylquinone. The control is provided by animals receiving only physiological saline. All substances are tested using the standard dosage of 10 mg/kg. […]

NA transporter = molecular target: T1, NA transporter (Rattus norvegicus, UniProt Q63380); assay: Inhibition of noradrenaline uptake in rat brain synaptosomes; assay type: biochemical; conditions: for inhibition at 10 µM: read-out: % Inhibition of NA uptake [10 μM]
T1 construct: from tissue; host or cells: rat brain synaptosomes (P2 fraction) from hypothalamus
Procedure: II. […] For in vitro studies, synaptosomes of rat brain areas are freshly isolated, as described in the article “The isolation of nerve endings from brain” by E. G. Gray and […]. Anatomy 96, pages 79-88, 1962. The relevant literature reference is enclosed herein by reference and is to be regarded as part of the disclosure. […] The homogenate is centrifuged at 4° C. for 10 minutes at 1000 g. […] The respective uptake was measured in a 96 well microtiter plate. The volume was 250 μL and the incubation was carried out at room temperature (ca 20-25° C.) under a blanket of oxygen. […] The 96 samples through were then filtered through a Unifilter GF/B® microtiter plate (Packard) and washed with 200 mL of incubated buffer with the aid of a “Brabdel Cell-Harvester MPXRI 96T”. The Unifilter GF/B plate was dried at 55° C. over a period of 1 h. The plate was then sealed with a back seal® (Packard) and there were then added 35 μL of scintillant fluid per well (Ultima Gold, Packard). Following sealing with a top seal® (Packard) and following adjustment of the equilibrium (approximately over a period of 5 h), the radioactivity is determined in a 1450 Microbeta® (Wallac). […] The amount of protein used in the above determination corresponded to the values known from the literature, such as is described in “Protein measurement with the folin phenol reagent”, Lowry et al., J. Biol. Chem., 193, 265-275, 1951. A detailed description of the method is disclosed in the literature, for example, in […], and B. […] The relevant literature references are incorporated herein by reference and are to be regarded as part of the disclosure.

5-HT uptake = molecular target: T2, 5-HT uptake (Rattus norvegicus, UniProt P31652); assay: Inhibition of 5-HT uptake in rat brain synaptosomes; assay type: biochemical; conditions: rat synaptosomes (medulla and pons), [3H]-5-HT
T2 construct: from tissue; host or cells: rat brain synaptosomes (P2 fraction) from marrow (medulla) and pons

[2] = 10 μM, rat synaptosomes (hypothalamus), [3H]-NA

T2 sequence (P31652 whole entry): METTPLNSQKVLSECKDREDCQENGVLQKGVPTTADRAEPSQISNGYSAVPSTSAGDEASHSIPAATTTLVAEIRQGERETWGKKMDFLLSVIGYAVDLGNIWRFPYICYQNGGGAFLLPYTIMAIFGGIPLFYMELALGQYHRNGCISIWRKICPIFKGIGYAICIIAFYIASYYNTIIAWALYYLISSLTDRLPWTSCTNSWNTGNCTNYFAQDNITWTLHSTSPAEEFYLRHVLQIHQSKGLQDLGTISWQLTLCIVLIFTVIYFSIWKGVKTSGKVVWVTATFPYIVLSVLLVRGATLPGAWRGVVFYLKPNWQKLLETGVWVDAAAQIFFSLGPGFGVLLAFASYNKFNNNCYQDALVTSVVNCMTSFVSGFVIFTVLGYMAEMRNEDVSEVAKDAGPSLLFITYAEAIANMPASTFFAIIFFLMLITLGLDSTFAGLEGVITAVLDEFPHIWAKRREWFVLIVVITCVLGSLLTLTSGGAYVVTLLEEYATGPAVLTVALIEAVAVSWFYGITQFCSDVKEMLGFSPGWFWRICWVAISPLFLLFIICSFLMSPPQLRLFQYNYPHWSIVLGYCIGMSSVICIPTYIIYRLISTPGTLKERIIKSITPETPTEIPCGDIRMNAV
T1 sequence (Q63380 1-617): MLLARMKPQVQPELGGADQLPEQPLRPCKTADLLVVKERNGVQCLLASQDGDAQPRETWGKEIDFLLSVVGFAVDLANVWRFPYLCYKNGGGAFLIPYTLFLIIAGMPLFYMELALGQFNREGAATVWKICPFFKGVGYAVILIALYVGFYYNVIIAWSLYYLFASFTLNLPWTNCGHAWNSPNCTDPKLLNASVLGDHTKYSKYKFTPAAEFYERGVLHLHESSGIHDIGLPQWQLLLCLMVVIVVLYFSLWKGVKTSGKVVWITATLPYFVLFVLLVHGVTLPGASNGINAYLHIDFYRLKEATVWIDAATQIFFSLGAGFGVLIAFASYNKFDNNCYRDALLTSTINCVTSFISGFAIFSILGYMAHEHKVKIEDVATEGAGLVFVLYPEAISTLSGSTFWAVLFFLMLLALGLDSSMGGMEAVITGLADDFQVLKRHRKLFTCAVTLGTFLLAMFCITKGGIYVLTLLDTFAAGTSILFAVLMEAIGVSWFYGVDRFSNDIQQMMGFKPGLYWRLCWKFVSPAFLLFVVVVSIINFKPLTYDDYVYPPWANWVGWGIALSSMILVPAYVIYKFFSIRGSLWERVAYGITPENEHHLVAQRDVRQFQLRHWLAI

Compound	% Inhibition of 5-HT uptake [10 μM] (5-HT uptake) [%]	% Inhibition of NA uptake [10 μM] (NA transporter; [2]) [%]	inhibition at 10 µM (5-HT uptake) [%]	inhibition at 10 µM (NA transporter; [2]) [%]	further results
O=C(Nc1nc2c(s1)CCCC2C(=O)N1CCN(c2ccccc2)CC1)c1ccco1 (stereo not drawn) [Example 89, Furan-2-carboxylic acid[4-(4-phenylpiperazin-1-carbonyl)-4,5,6,7-tetrahydrobenzthiazol-2-yl]amide]	–	–	–	–	% Inhibition of writhing reactions at 10 mg/kg intravenous [1]: 41%; inhibition at 10 µM (NA transporter): 77%
O=C(Nc1nc2c(s1)CCCC2C(=O)N1CCN(CCc2ccccc2)CC1)c1ccoc1 (stereo not drawn) [Example 71, Furan-3-carboxylic acid[4-(4-phenethylpiperazin-1-carbonyl)-4,5,6,7-tetrahydrobenzthiazol-2-yl]amide]	66	90	–	–	–
CCCCCC(=O)Nc1nc2c(s1)CCCC2C(=O)N1CCN(Cc2c(OC)cc(OC)cc2OC)CC1 (stereo not drawn) [Example 34, Hexanoic acid{4-[4-(2,4,6-trimethoxybenzyl)piperazin-1-carbonyl]-4,5,6,7-tetrahydrobenzthiazol-2-yl}amide]	63	50	–	–	–
O=C(Cc1ccc(F)cc1)Nc1nc2c(s1)CCCC2C(=O)N1CCN(c2ccccc2Cl)CC1 (stereo not drawn) [Example 81, N-{4-[4-(2-Chlorophenyl)piperazin-1-carbonyl]-4,5,6,7-tetrahydrobenzthiazol-2-yl}-2-(4-fluorophenyl)acetamide]	–	–	50	80	–
CC(C)(C)CC(=O)Nc1nc2c(s1)CCCC2C(=O)N1CCN(CC=Cc2ccccc2)CC1 (stereo not drawn) [Example 87, 3,3-Dimethyl-N-{4-[4-(3-phenylallyl)piperazin-1-carbonyl]-4,5,6,7-tetrahydrobenzthiazol-2-yl}butyramide]	–	–	56	46	–
O=C(Nc1nc2c(s1)CCCC2C(=O)N1CCN(Cc2cc3ccccc3o2)CC1)c1ccoc1 (stereo not drawn) [Example 17, Furan-3-carboxylic acid[4-(4-benzofuran-2-ylmethylpiperazin-1-carbonyl)-4,5,6,7-tetrahydrobenzthiazol-2-yl]amide]	72	81	–	–	–
